Experimental findings from article PMC10739591, “mCherry on Top: A Positive Read-Out Cellular Platform for Screening DMD Exon Skipping Xenopeptide–PMO Conjugates” (Bioconjugate Chemistry, 2023) are described below.

The test system of this series is DMD exon 23. Nature of the series: Splicing modulation in vivo (DMD exon 23 skipping, nested RT-PCR ex vivo). Particulars: BALB/c mice, i.v., 375 µg PMO, 48 h after injection. As to the method: 6-week-old female BALB/c mice (BALB/cByJRj, Janvier, Le Genest-Saint-Isle, France) were housed in isolated ventilated cages under pathogen-free conditions with a 12 h light/dark interval. The mice were acclimated for 7 days prior to treatments. Water and food were provided ad libitum. For splice switching in the physiological DMD gene, PMO formulations were prepared 48 h before intravenous injection, as described above. The freeze-dried PMO formulations were reconstituted with HBG to obtain a concentration of 375 μg PMO per 150 μL. The mice were randomly divided into three groups (n = 6 for PMO(Ex23)-1395, and n = 5 for free 3′ primary amine-modified PMO(Ex23) and PMO(705)-1395). 150 μL of PMO solution was injected intravenously into a lateral tail vein. 48 h after injection, the mice were euthanized and the brain, spleen, quadriceps femoris muscle, kidneys, liver, lung, and heart were harvested. For stabilization of the mRNA, the organs were incubated in RNAlater solution (Thermo Fisher Scientific, Waltham) overnight at 4 °C and afterward stored at −20 °C. Each organ was manually homogenized using a mortar and pestle and liquid nitrogen. […]
The final PCR products were analyzed by agarose gel electrophoresis (2% agarose gel; 100 V; 2 h). Individual band intensities were quantified and put into relation to the band of full-length DMD-Ex20–24 with a size of 633 bp by using ImageJ software.

Regarding “PMO(Ex23): PMO GGCCAAACCTCGGCTTACCTGAAAT with 3'-primary amine; targets donor splice site of DMD intron 23 (PMO, 3'-primary amine, chemistry not fully specified)”, the “DMD exon 23 skipping in skeletal muscle (quadriceps femoris)” value is “predominant splice-switching activity in the skeletal muscle”.
